Data as given in patent US20080145313A1, “Compositions and Methods for the Treatment and Prevention of Neoplastic Disorders” (Genesis Research & Development Corporation Limited, priority 2006, published 2008).

How the values were obtained:
A549 cells = test: Growth inhibition of siRNA-transfected A549 cells, SYBR Green I DNA content; type: cell-based, human; conditions: for Growth Inhibition in A549 cells / Growth Inhibition in A549 cells by 10 nM siRNA: 10 nM siRNA, DNA content 96 hours after transfection; for Growth Inhibition in A549 cells by 10 nM siRNA: transporter gene targets
Outline: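 A549 cells reverse-transfected with 10 nM Stealth siRNAs via Lipofectamine RNAiMAX, seeded at 5×10^3 cells/cm^2 in RPMI 1640/10% FCS; non-specific siRNA control. DNA content read 96 h post-transfection by SYBR Green I fluorescence (ex 485/em 535 nm) after freeze-thaw and Triton X-100 lysis; mean of three wells.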

A549 xenograft tumor = test: Xenograft tumor growth of A549 cells transfected with siRNA pre-implantation in CD-1 nude mice; type: in vivo, mouse; conditions: for tumor growth rate compared to control groups: A549 cells transfected with siRNA before s.c. inoculation; for tumor growth inhibition compared to the control groups: cells transfected pre-implantation, monitored 33 or 26 days
Procedure: To determine the effect of RRM1 knockdown on tumor growth, A549 cells (human lung cancer cell line; ATCC No. CCL-185) were reverse-transfected prior to implantation in CD-1 nude mice. In 175 cm^2 culture flasks, 10×10^6 A549 cells (in RPMI supplemented with 10% fetal calf serum) were added to pre-made lipoplexes. To make lipoplexes, Lipofectamine RNAiMAX in serum-free RPMI was added to an equal volume of serum-free RPMI containing siRNA (RRM1-2; SEQ ID NO: 4831 (DNA), and SEQ ID NO: 5137 (RNA)) and a control siRNA (SEQ ID NO: 4804 (DNA), and SEQ ID NO: 5301 (RNA)). After addition of cells, the final concentration of siRNA in the flask was 10 nM. Untransfected cells served as a further control. Flasks were incubated at 37° C. for 24 h to allow transfection to proceed.
The cells were harvested by trypsinization 24 h after the transfection, washed twice in PBS and viable cells were counted. Equal numbers of cells (1×10^7) were inoculated into CD-1 nude mice (n=7-9). Briefly, 5 to 7 weeks old nude mice were subcutaneously (s.c.) injected in the right flank with A549 cells in 100 μl PBS. Tumor growth was monitored 3 times per week by measuring tumor sizes using a digital caliper. Tumor volume was expressed in […] using the formula: V=a^2×b×0.52, where a and b represent the minimum and maximum tumor diameter, respectively. Mean tumor volumes calculated from each measurement were then plotted in a standard graph to compare the tumor growth of transfected cells to that of control.
To determine the effect of siRNA-mediated knockdown of HK-II, CAD, IMPDH2, RRM2, SLC16A1 and SLC29A1 on tumor growth, A549 cells (human lung cancer cell line; ATCC No. CCL-185) were reverse-transfected prior to implantation in CD-1 nude mice as described above with siRNAs given in SEQ ID NO: 5307 (DNA), and SEQ ID NO: 5304 (RNA) for RRM2, SEQ ID NO: 4932 (DNA), and SEQ ID NO: 5227 (RNA) for ENT1, SEQ ID NO: 4813 (DNA), and SEQ ID NO: 5119 (RNA) for HK-II, SEQ ID NO: 4827 (DNA), and SEQ ID NO: 5133 (RNA) for CAD, SEQ ID NO: 4879 (DNA), and SEQ ID NO: 5182 (RNA) for IMPDH2 and SEQ ID NO: 4924 (DNA), and SEQ ID NO: 5219 (RNA) for SLC16A1, respectively. The siRNA given in SEQ ID NO: 4804 (DNA), and SEQ ID NO: 5301 (RNA) was used as control.
In two separate experiments, CD-1 mice were divided into five groups that received untransfected A549 cells, cells transfected with control siRNA or three different siRNAs (as listed above), respectively. Cells were transfected in vitro using the method as described in Example 8, and 24 h after transfection, s.c. inoculated into mice. Tumor growth was measured 3 times per week. In the first experiment, mice received cells transfected with siRNA targeting RRM2, HK-II or SLC29A1 and were monitored for 33 days. In the second experiment, mice received cells transfected with siRNA targeting CAD, IMPDH2 or SLC16A1, and were monitored for 26 days. […] Similarly, preliminary data indicated tumor growth rate was reduced for the groups receiving cells transfected with siRNA targeting CAD and SLC16A1. Twenty-six days after cell inoculation, the tumor volume for mice with cells transfected with siRNA targeting CAD or SLC16A1 was 97.2±7.3 mm^3 or 110.1±28.1 mm^3, respectively.

[1] = system: target transcript mRNA in A549 cells; test: Level of mRNA of target transcript in A549 cells by quantitative RT-PCR (Tables 12 and 13); type: cell-based, human; conditions: 24 h post-transfection; for mRNA knockdown of transporter gene target transcript, 0.1 nM: 0.1 nM siRNA; for mRNA knockdown of transporter gene target transcript, 1 nM: 1 nM siRNA
Outline: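 A549 cells were transfected with siRNA at 0.1, 1.0 and 10 nM. RNA was extracted 24 h later, reverse-transcribed with random primers, and target mRNA quantified by SYBR Green qRT-PCR. Values were normalised to housekeeping genes HPRT and Lamin.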

| Substance | Growth Inhibition in A549 cells (A549 cells) | Growth Inhibition in A549 cells by 10 nM siRNA (A549 cells) | mRNA knockdown of transporter gene target transcript, 0.1 nM [1] | mRNA knockdown of transporter gene target transcript, 1 nM [1] | also measured |
| --- | --- | --- | --- | --- | --- |
| SEQ ID NO: 4831: Stealth siRNA targeting RRM1 (chain 1 TAGAAGTGCATACTAGTGAGTTTGC; chain 2 UAGAAGUGCAUACUAGUGAGUUUGC; Stealth siRNA, chemical pattern not given here; one strand in two spellings) | ++ (inhibits by at least 75%) | – | – | – | growth inhibition, A549 (A549 cells; 0.1 nM siRNA, 96 h post-transfection, normalized to control siRNA): 50%; mice with measurable tumors (A549 xenograft tumor; A549 cells transfected with 10 nM siRNA 24 h before s.c. inoculation): two of eight; tumor growth rate compared to control groups (A549 xenograft tumor): reduced dramatically; average tumor size (A549 xenograft tumor; six weeks after the cell inoculation, 10 nM siRNA pre-implantation): 49.1±18.4 mm^3 |
| SEQ ID NO: 4827: siRNA targeting CAD (chain 1 TTCAAGAGAATTTGCTGCCTCGCTC; chain 2 UUCAAGAGAAUUUGCUGCCUCGCUC; chemistry not given here; one strand in two spellings) | + (inhibits by at least 50%) | – | – | – | tumor growth rate compared to control groups (A549 xenograft tumor): reduced; tumor volume (A549 xenograft tumor; twenty-six days after cell inoculation, preliminary data): 97.2±7.3 mm^3 |
| SEQ ID NO: 4813: siRNA targeting HK-II (chain 1 AATGAGACCAATCTCACAGTTGTGG; chain 2 AAUGAGACCAAUCUCACAGUUGUGG; chemistry not given here; one strand in two spellings) | ++ (inhibits by at least 75%) | – | – | – | tumor growth inhibition compared to the control groups (A549 xenograft tumor): No tumor growth inhibition |
| SEQ ID NO: 4879: siRNA targeting IMPDH2 (chain 1 AATACCGCCTGTAAGCGCCATTGCT; chain 2 AAUACCGCCUGUAAGCGCCAUUGCU; Both strands are one antisense strand in DNA/RNA notation, chemistry not given here, further chemistry not given here; one strand in two spellings) | ++ (inhibits by at least 75%) | – | – | – | tumor growth inhibition compared to the control groups (A549 xenograft tumor): No tumor growth inhibition |
| SEQ ID NO: 4905: siRNA targeting SLC7A11 (xCT) (chain 1 ATTATGAGGAGTTCCACCCAGACTC; chain 2 AUUAUGAGGAGUUCCACCCAGACUC; Antisense strand given in DNA and RNA notation, chemistry not given here; one strand in two spellings) | – | ++ (inhibits by at least 75%) | ++ (70-90% mRNA knockdown) | ++ (70-90% mRNA knockdown) | – |
| SEQ ID NO: 4896: siRNA targeting SLC2A5 (GLUT5) (chain 1 AAGTCTTCCATGAATTCACCGGTCC; chain 2 AAGUCUUCCAUGAAUUCACCGGUCC; Antisense strand given in DNA and RNA notation, chemistry not given here; one strand in two spellings) | – | − (no growth inhibition) | − (<50% mRNA knockdown) | − (<50% mRNA knockdown) | – |
| SEQ ID NO: 4969: siRNA targeting ATP7B (chain 1 AAGGGAGCCACTTTGCTCTTGATGG; chain 2 AAGGGAGCCACUUUGCUCUUGAUGG; chemistry not given here; one strand in two spellings) | – | − (no growth inhibition) | − (<50% mRNA knockdown) | ++ (70-90% mRNA knockdown) | – |
| SEQ ID NO: 4964: siRNA targeting ATP7A (chain 1 TAACCATCATATATATCATCAGCCC; chain 2 UAACCAUCAUAUAUAUCAUCAGCCC; chemistry not given here; one strand in two spellings) | – | − (no growth inhibition) | − (<50% mRNA knockdown) | − (<50% mRNA knockdown) | – |
| SEQ ID NO: 4977: siRNA targeting ABCB1 (MDR1) (chain 1 AAACGATGAGCTATCACAATGGTGG; chain 2 AAACGAUGAGCUAUCACAAUGGUGG; chemistry not given here; one strand in two spellings) | – | − (no growth inhibition) | − (<50% mRNA knockdown) | − (<50% mRNA knockdown) | – |
| SEQ ID NO: 4891: siRNA targeting SLC1A5 (ASCT2) (chain 1 TCTACATTGAGGACGGTACAGGACC; chain 2 UCUACAUUGAGGACGGUACAGGACC; Antisense strand given in DNA and RNA notation, chemistry not given here; one strand in two spellings) | – | − (no growth inhibition) | ++ (70-90% mRNA knockdown) | ++ (70-90% mRNA knockdown) | – |
| SEQ ID NO: 4912: siRNA targeting SLC5A6 (SMVT1) (chain 1 ACCAGTGTCTGGAACACATCTGTCC; chain 2 ACCAGUGUCUGGAACACAUCUGUCC; Antisense strand given in DNA and RNA notation, chemistry not given here; one strand in two spellings) | – | − (no growth inhibition) | + (50-70% mRNA knockdown) | + (50-70% mRNA knockdown) | – |
